From article PMC6804253, “Predicting and Experimentally Validating Hot-Spot Residues at Protein–Protein Interfaces” (ACS Chemical Biology, 2019)
Where a chain is given by its changes, count along the chain named. Read-outs that look alike come from different tables or passages of the source. Where a SMILES comes first, the peptide text is derived from it. Where no end group is shown, it is not given here. The star is where a group is joined. 5FAM = O=C1OC2(c3ccc(O)cc3Oc3cc(O)ccc32)c2ccc(C(=O)*)cc21; AEEA = NCCOCCOCC(=O)O

Tests used:
[1] = system: PPIs of the SKEMPI data set (by PDBID); details: Flex_ddG Talaris2014, 1 REU = 1 kcal/mol assumed; cited from earlier work
[2] = system: PPIs of the SKEMPI data set (by PDBID); details: Flex_ddG Ref2015, 1 REU = 1 kcal/mol assumed; cited from earlier work
[3] = system: PPIs of the SKEMPI data set (by PDBID); experiment: SKEMPI experimental ΔΔG, single mutations to alanine; type: binding; details: for sk_class (class of the SKEMPI experimental ΔΔG): Positive / Neutral / Negative by ΔΔG threshold 4.184 kJ/mol
[4] = system: PPIs of the SKEMPI data set (by PDBID); details: cited from earlier work; for sk_ddG_kJ (SKEMPI experimental ΔΔG of binding, mutation to alanine): single mutation to alanine in the complex of the given PDBID
SUMO-1 = biological target: T1, SUMO-1 (Homo sapiens, UniProt P63165); type: binding
T1 construct: The pet19b His-TEV-SUMO-1 (18-97) construct was over-expressed; His-TEV (N, cleaved yes); made in house; host or cells: E. coli Rosetta 2

SHANK-PDZ = biological target: T2, SHANK-PDZ (Homo sapiens, UniProt Q9Y566); details: for H (fitted ITC data): binding enthalpy from ITC fit; for H (fitted ITC data) / S (fitted ITC data): 20 mM Tris, 150 mM NaCl pH 7.5 at 25 °C; for S (fitted ITC data): binding entropy from ITC fit
T2 sequence (Q9Y566 656-762): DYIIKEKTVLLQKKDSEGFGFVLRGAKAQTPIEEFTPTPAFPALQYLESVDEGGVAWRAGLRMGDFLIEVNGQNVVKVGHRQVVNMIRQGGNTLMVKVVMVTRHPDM

[5] = class of the experimental SKEMPI ΔΔG
[6] = experimental ΔΔG of single mutation to alanine, SKEMPI database
[7] = class of the SKEMPI experimental ΔΔG, ref SKEMPI
[8] = SKEMPI experimental ΔΔG of binding, single mutation to alanine, complex by PDBID, ref SKEMPI

T1 sequence (P63165 18-97, species assumed): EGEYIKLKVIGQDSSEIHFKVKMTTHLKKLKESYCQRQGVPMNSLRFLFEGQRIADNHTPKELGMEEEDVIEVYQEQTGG

1A22 IA4A
rosetta_ddG_kJ [1]: -0.124 kcal/mol
ref2015_ddG_kJ [2]: -0.201 kcal/mol
sk_class (class of the SKEMPI experimental ΔΔG) ([3]; ref SKEMPI): Neutral (neutral (little effect) 4.184 kJ/mol < ΔΔG > −4.184 kJ/mol)
sk_class [3, 5]: Neutral (neutral (little effect) 4.184 kJ/mol < ΔΔG > −4.184 kJ/mol)
sk_ddG_kJ [4, 6]: 0.411 kcal/mol
sk_ddG_kJ (SKEMPI experimental ΔΔG of binding, mutation to alanine) ([4]; ref SKEMPI): 1.72 kJ

1A22 LA6A
rosetta_ddG_kJ [1]: -0.0669 kcal/mol
ref2015_ddG_kJ [2]: -0.184 kcal/mol
sk_class (class of the SKEMPI experimental ΔΔG) ([3]; ref SKEMPI): Neutral (neutral (little effect) 4.184 kJ/mol < ΔΔG > −4.184 kJ/mol)
sk_class [3, 5]: Neutral (neutral (little effect) 4.184 kJ/mol < ΔΔG > −4.184 kJ/mol)
sk_ddG_kJ [4, 6]: 0.6 kcal/mol
sk_ddG_kJ (SKEMPI experimental ΔΔG of binding, mutation to alanine) ([4]; ref SKEMPI): 2.51 kJ

1A22 PA5A
rosetta_ddG_kJ [1]: 0.146 kcal/mol
ref2015_ddG_kJ [2]: 0.0406 kcal/mol
sk_class [3, 5]: Neutral (neutral (little effect) 4.184 kJ/mol < ΔΔG > −4.184 kJ/mol)
sk_class (class of SKEMPI experimental ΔΔG) ([4]; class by ΔΔG threshold 4.184 kJ/mol, ref SKEMPI): Neutral (neutral (little effect) 4.184 kJ/mol < ΔΔG > −4.184 kJ/mol)
sk_ddG_kJ [4, 6]: 0.43 kcal/mol
sk_ddG_kJ (SKEMPI experimental ΔΔG, mutation to alanine) ([4]; single mutation to alanine, complex given by PDBID, residue group in r_group, ref SKEMPI): 1.80 kJ

1A22 TA3A
rosetta_ddG_kJ [1]: -0.0406 kcal/mol
ref2015_ddG_kJ [2]: 0.0717 kcal/mol
sk_class ([3]; class of the SKEMPI experimental ΔΔG): Neutral (neutral (little effect) 4.184 kJ/mol < ΔΔG > −4.184 kJ/mol)
sk_class [3, 5]: Neutral (neutral (little effect) 4.184 kJ/mol < ΔΔG > −4.184 kJ/mol)
sk_ddG_kJ [4, 6]: -0.0502 kcal/mol
sk_ddG_kJ (SKEMPI experimental ΔΔG) ([4]; single mutation to alanine, complex given by PDBID, mutation by mut_pdb, ref SKEMPI): -0.21 kJ

CC[C@H](C)[C@H](NC(=O)[C@H](C)NC(=O)[C@H](CC(N)=O)NC(=O)[C@H](CC(=O)O)NC(=O)COCCOCCNC(=O)c1ccc2c(c1)C(=O)OC21c2ccc(O)cc2Oc2cc(O)ccc21)C(=O)N[C@@H](CCC(=O)O)C(=O)N[C@H](C(=O)N[C@H](C(=O)N[C@H](C(=O)N[C@H](C(=O)N[C@@H](Cc1c[nH]c2ccccc12)C(=O)N[C@@H](CCC(=O)O)C(=O)N[C@@H](CCCCN)C(=O)N[C@@H](CCCCN)C(N)=O)C(C)C)[C@@H](C)CC)[C@@H](C)CC)C(C)C [FAM-E2707A SIM] ({5FAM-AEEA}-DNAIEVIIVWEKK-NH2)
Experimental competition (ΔΔG on mutation of the residue to alanine) (SUMO-1): 1.7
Experimental competition (ΔΔG) (SUMO-1): 0.406 kcal/mol

CC[C@H](C)[C@H](NC(=O)[C@H](CCC(=O)O)NC(=O)[C@H](CC(N)=O)NC(=O)[C@H](CC(=O)O)NC(=O)COCCOCCNC(=O)c1ccc2c(c1)C(=O)OC21c2ccc(O)cc2Oc2cc(O)ccc21)C(=O)N[C@@H](CCC(=O)O)C(=O)N[C@H](C(=O)N[C@H](C(=O)N[C@@H](C)C(=O)N[C@H](C(=O)N[C@@H](Cc1c[nH]c2ccccc12)C(=O)N[C@@H](CCC(=O)O)C(=O)N[C@@H](CCCCN)C(=O)N[C@@H](CCCCN)C(N)=O)C(C)C)[C@@H](C)CC)C(C)C [FAM-I2712A SIM] ({5FAM-AEEA}-DNEIEVIAVWEKK-NH2)
Experimental competition (ΔΔG on mutation of the residue to alanine) (SUMO-1): 5.7
Experimental competition (ΔΔG) (SUMO-1): 1.36 kcal/mol

CC[C@H](C)[C@H](NC(=O)[C@H](C)NC(=O)[C@H](CCC(=O)O)NC(=O)[C@@H](NC(=O)[C@H](CCC(=O)O)NC(=O)[C@H](CC(N)=O)NC(=O)[C@H](CC(=O)O)NC(=O)COCCOCCNC(=O)c1ccc2c(c1)C(=O)OC21c2ccc(O)cc2Oc2cc(O)ccc21)[C@@H](C)CC)C(=O)N[C@H](C(=O)N[C@H](C(=O)N[C@@H](Cc1c[nH]c2ccccc12)C(=O)N[C@@H](CCC(=O)O)C(=O)N[C@@H](CCCCN)C(=O)N[C@@H](CCCCN)C(N)=O)C(C)C)[C@@H](C)CC [FAM-V2710A SIM] ({5FAM-AEEA}-DNEIEAIIVWEKK-NH2)
Experimental competition (ΔΔG on mutation of the residue to alanine) (SUMO-1): 4.7
Experimental competition (ΔΔG) (SUMO-1): 1.12 kcal/mol

CC[C@H](C)[C@H](NC(=O)[C@H](CCC(=O)O)NC(=O)[C@H](CC(N)=O)NC(=O)[C@H](CC(=O)O)NC(=O)COCCOCCNC(=O)c1ccc2c(c1)C(=O)OC21c2ccc(O)cc2Oc2cc(O)ccc21)C(=O)N[C@@H](CCC(=O)O)C(=O)N[C@H](C(=O)N[C@H](C(=O)N[C@H](C(=O)N[C@H](C(=O)N[C@@H](C)C(=O)N[C@@H](CCC(=O)O)C(=O)N[C@@H](CCCCN)C(=O)N[C@@H](CCCCN)C(N)=O)C(C)C)[C@@H](C)CC)[C@@H](C)CC)C(C)C [FAM-W2714A SIM] ({5FAM-AEEA}-DNEIEVIIVAEKK-NH2)
Experimental competition (ΔΔG on mutation of the residue to alanine) (SUMO-1): 8.1
Experimental competition (ΔΔG) (SUMO-1): 1.94 kcal/mol

Ac-EAQTRL [GKAP]
H (fitted ITC data) (SHANK-PDZ): -6.54 ± 0.04 kcal/mol
S (fitted ITC data) (SHANK-PDZ): 3.49 cal/molK

Ac-EAQTRL-NH2 [CO2H-CONH2 GKAP]
Experimental ΔΔG, direct titration (SHANK-PDZ): 2.72 kcal/mol
H (fitted ITC data) (SHANK-PDZ): -1.57 ± 0.18 kcal/mol
S (fitted ITC data) (SHANK-PDZ): 11.2 cal/molK

B1: 1DAN KU122A (protein, UniProt P13726 33-251, looked up, variant K122A)
extracellular domain: SGTTNTVAAYNLTWKSTNFKTILEWEPKPVNQVYTVQISTKSGDWKSKCFYTTDTECDLTDEIVKDVKQTYLARVFSYPAGNVESTGSAGEPLYENSPEFTPYLETNLGQPTIQSFEQVGTAVNVTVEDERTLVRRNNTFLSLRDVFGKDLIYTLYYWKSSSSGKKTAKTNTNEFLIDVDKGENYCFSVQAVIPSRTVNRKSTDSPVECMGQEKGEFRE
modifications: extracellular domain
sk_class [3, 7]: Neutral (neutral (little effect) 4.184 kJ/mol < ΔΔG > −4.184 kJ/mol)
sk_ddG_kJ [4, 8]: -0.50 kJ

B2: 1DAN EU128A (protein, UniProt P13726 33-251, looked up, variant E128A)
extracellular domain: B1 extracellular domain with A122K, E128A
modifications: extracellular domain
sk_class [3, 7]: Neutral (neutral (little effect) 4.184 kJ/mol < ΔΔG > −4.184 kJ/mol)
sk_ddG_kJ [4, 8]: 0.38 kJ

B3: 1DAN DU129A (protein, UniProt P13726 33-251, looked up, variant D129A)
extracellular domain: B1 extracellular domain with A122K, D129A
modifications: extracellular domain
sk_class [3, 7]: Neutral (neutral (little effect) 4.184 kJ/mol < ΔΔG > −4.184 kJ/mol)
sk_ddG_kJ [4, 8]: -0.08 kJ

B4: 1DAN RU131A (protein, UniProt P13726 33-251, looked up, variant R131A)
extracellular domain: B1 extracellular domain with A122K, R131A
modifications: extracellular domain
sk_class [3, 7]: Neutral (neutral (little effect) 4.184 kJ/mol < ΔΔG > −4.184 kJ/mol)
sk_ddG_kJ [4, 8]: 0.00 kJ
